“And” between values parts separate entries of the source, which are not always exact repeats. Equal values may be shown once.
Tests used:
PHKs = experiment: Cytokine release into PHK supernatant (LEGENDplex / ELISA); assay type: cell-based, human; conditions: 5 h, lugdunin 2 µM or Pam2Cys 100 ng/mL, two technical replicates
Experimental: Fig. 1 Lugdunin sensitizes epithelial cells for innate immune defense. a Primary human keratinocytes (PHKs) were pretreated with S. epidermidis conditioned medium (CM), indicated lugdunin concentrations, or the combination of both for 20 h. Subsequently, cells were infected with S. aureus for 1.5 h followed by cell lysis and determination of colony-forming units (CFUs). Shown is one representative experiment of three independent experiments with six technical replicates ± s.e.m. n.s., not significant. b Dorsal skin of mice was pretreated with S. epidermidis CM, 1.5 µg lugdunin alone or in combination with S. epidermidis CM for 24 h. Subsequently, S. aureus CFUs were determined. Horizontal lines represent the mean of each group ± s.e.m. c PHKs were treated with 2 μM lugdunin or with S. epidermidis CM alone or in combination for 20 h and subsequently expression of indicated antimicrobial peptides (AMPs) (respective protein names in brackets) was analyzed and normalized to actin. Shown is one representative experiment of three independent experiments with two technical replicates ± s.e.m. d PHKs were treated with 2 µM lugdunin or 100 ng/mL Pam2Cys for 5 h and subsequently the concentration of indicated cytokines in the supernatant was analyzed by LEGENDplex^TM (BioLegend). Shown is one representative experiment of three independent experiments with two technical replicates ± s.e.m. e PHKs were treated with increasing concentrations of lugdunin or 100 ng/mL Pam2Cys or Pam3Cys for 5 h and subsequently expression of chemokine (C-X-C motif) ligand 8 (CXCL8) was analyzed and normalized to actin. Shown is one representative experiment of three independent experiments, each with two technical replicates ± s.e.m. f, g Indicated cells were treated with 2 µM lugdunin or 100 ng/mL Pam2Cys as a positive control for 5 h and subsequently the concentration of CXCL8 (f) and interleukin-1α (IL-1α) (g) in the supernatant was analyzed by LEGENDplex^TM (BioLegend) and enzyme-linked immunosorbent assay (ELISA) (R&D Systems). Shown is one representative experiment of three independent experiments with two technical replicates ± s.e.m. Significant differences to control treatments were analyzed by ordinary one-way analysis of variance (ANOVA) followed by Dunnett’s multiple comparisons test (*P < 0.05; **P < 0.01; ***P < 0.001; ****P < 0.0001). n.d. = not detected. Source data are provided as a Source Data file
For cytokine analysis from cell cultures, 10 µL of supernatant was used for cytokine analysis via the LEGENDplex^TM human inflammation panel (BioLegend). For cytokine analysis from mouse skin, 4 mm skin punches were cultured in an airlift system where only the dermis had access to medium for 10 h. Skin punches were cultured in RPMI containing 1% FCS (Biochrom/Merck Millipore), 1% penicillin and streptomycin (Gibco/Life Technologies) and 0.25 µg/mL amphotericin B (CELLnTEC). Ten microliters of a 3-fold dilution of culture supernatant was used for cytokine analysis via the LEGENDplex^TM mouse inflammation panel (BioLegend). Samples were acquired in duplicates using a BD LSRII flow cytometer (BD Biosciences) and LEGENDplex^TM Software (BioLegend).
For IL-1α analysis, 100 µL of cell culture supernatant was analyzed via ELISA (R&D Systems) according to manufacturer’s instruction. For MIP-2 analysis, 100 µL of a 5-fold dilution from skin cultures supernatant was used and analyzed via ELISA (R&D Systems) according to the manufacturer’s instruction. For LL-37 ELISA, ELISA plates (Nunc) were coated overnight at 4 °C with 100 µL of cell culture supernatant or 2-fold dilutions of LL-37 starting from 8 µg/mL. The next day, the plate was washed three times using PBS + 0.5% BSA + 0.05% Triton X-100, followed by incubation with 100 µL primary antibody against hCAP18/LL-37 (HycultBiotech, Cat#HM2071, 1:120 in PBS + 0.5% BSA + 0.05% Triton X-100) at 37 °C for 1 h. […]

HNEpCs = experiment: CXCL8 expression in HNEpCs (qRT-PCR); assay type: cell-based, human; conditions: 5 h, two technical replicates
Experimental: Quantitative reverse transcription-polymerase chain reaction (qRT-PCR) was performed in 10 µL reaction volume with SYBR^TM Green PCR Master Mix (Thermo Fisher) according to the manufacturer’s instructions using a LightCycler 96 (Roche Life Science). The initial denaturation step was at 95 °C for 5 min, followed by 40 cycles with 10 s each for the denaturation step at 95 °C, the annealing at individual temperature, and the elongation at 72 °C. Primer sequences and respective annealing temperatures are listed in Supplementary Table 1. […]
31 g+h+i: HNEpCs (b), HTEpCs (c) or PBMCs (d) were treated with increasing
32 concentrations of lugdunin (grey bars) or 100 ng/mL Pam2Cys or Pam3Cys (white
33 bars) as positive controls for 5 hours and subsequently expression of CXCL8 was
34 analyzed and normalized to actin. Black bar: medium control. Shown is one
35 representative experiment of three independent experiments with two technical
36 replicates +/-s.e.m. Significant differences to control treatments were analyzed by
37 ordinary one-way ANOVA followed by Dunnett’s multiple comparisons test (*P<0.05; […]

Substance: Lugdunin
- CXCL8 concentration in supernatant (PHKs; LEGENDplex, Fig 1d): 62.009 and 63.022
- CXCL8 concentration in supernatant (PHKs; Fig 1f): 186.026 and 189.663
- IFN concentration in supernatant (first line IFN, r44) (PHKs; Fig 1d): 0.000
- IFN concentration in supernatant (second line IFN, r45) (PHKs; Fig 1d): 0.000
- IL-1 concentration in supernatant (first line IL-1, r43) (PHKs; Fig 1d): 0.000
- IL-1 concentration in supernatant (second line IL-1, r47) (PHKs; Fig 1d): 0.000
- IL-6 concentration in supernatant (PHKs; Fig 1d): 0.000
- IL-10 concentration in supernatant (PHKs; Fig 1d): 0.000
- IL-12p70 concentration in supernatant (PHKs; Fig 1d): 0.000
- IL-18 concentration in supernatant (PHKs; Fig 1d): 0.000
- IL-23 concentration in supernatant (PHKs; Fig 1d): 0.000
- IL-33 concentration in supernatant (PHKs; Fig 1d): 0.000
- MCP-1 concentration in supernatant (PHKs; Fig 1d): 219.647 and 222.665
- TNF concentration in supernatant (PHKs; Fig 1d): 0.000
- CXCL8 fold induction (HNEpCs; lugdunin 0.5 µM, sheet Supp Fig 1f): 2.151 and 2.454
- CXCL8 fold induction (HNEpCs; lugdunin 1 µM): 2.621
- CXCL8 fold induction (HNEpCs; lugdunin 2 µM): 6.148 and 8.056
- CXCL8 fold induction (HNEpCs; lugdunin 3 µM): 5.836 and 8.253
- CXCL8 fold induction (HNEpCs; lugdunin 5 µM): 4.724 and 6.453
- CXCL8 fold induction (HNEpCs; lugdunin 10 µM): 1.659 and 2.014
